Literature values as cited in patent publication US20180133221A1, “ADMINISTRATION OF UBIQUITIN-ACTIVATING ENZYME INHIBITOR AND CHEMOTHERAPEUTIC AGENTS” (Millennium Pharmaceuticals, Inc., priority 2014, published 2018).

Assays:
[1] = test system: leukemia and myeloma cell lines; conditions: leukemia and myeloma cell lines (Xu et al., 2010); cited from earlier work
[2] = test system: mouse acute myeloid leukemia (AML model); conditions: mouse AML model (Xu et al., 2010); cited from earlier work

## O=C1NN(c2ccc(F)c(Cl)c2)C(=O)/C1=C\c1ccc([N+](=O)[O-])o1 [PYZD-4409]
[1]
  cell death: induced cell death
[2]
  anti-tumor activity: demonstrated anti-tumor activity
